The values that follow come from paper PMC9881673, “Investigating the potential anticancer activities of antibiotics as topoisomerase II inhibitors and DNA intercalators: in vitro, molecular docking, molecular dynamics, and SAR studies” (Journal of Enzyme Inhibition and Medicinal Chemistry, 2023).

The nature of series [1]: MTT antiproliferative assay, HepG-2. It is filed as cell-based. Conditions: human, HepG-2 hepatocellular carcinoma cells, HepG-2, MTT, read-out: IC50 (cytotoxicity). As to the method:
(§1) DOX was used as standard (920 µM).
For orientation: Tetrazolium dyes change colour on reduction, which living cells bring about.

The next series addresses T1, TOP-2 enzyme (Homo sapiens, UniProt P11388).
T1 construct: purchased TOPOGEN, CO, USA TG1001
Nature of the series: Topoisomerase II inhibitory assay (TopoGEN plasmid-based kit, DNA decatenation). It is filed as biochemical. Conditions: decatenation of DNA by TOP-2; read-out: IC50 (TOP-2 inhibition). On the procedure: SP, RO, AZ, CL, and ER (as ethyl succinate) were provided from NODQCAR at a purity > 99.87%. Human mammary tumours, hepatocellular carcinoma (HepG2), and colorectal cancer (HCT-116) cell lines were obtained from VACSERA; Egypt. RPMI 1640 doped with 10% FBS was provided from VACSERA; Egypt. The inhibitory potential against TOP-2 was assessed by the Topo GEN assay kit (TOPOGEN, CO, USA).
Results were reported as IC50 and compared to DOX.

Series [2] can be described thus: MTT antiproliferative assay, HCT-116. Format: cell-based. Conditions: human, HCT-116 colorectal carcinoma cells, HCT-116, MTT, read-out: IC50 (cytotoxicity). As to the method:
as §1

A further series can be described thus: in vitro. Conditions: human, MCF-7 breast cancer cells.

In general, IC50 refers to the midpoint of a concentration-inhibition curve.

T1 sequence (P11388 whole entry): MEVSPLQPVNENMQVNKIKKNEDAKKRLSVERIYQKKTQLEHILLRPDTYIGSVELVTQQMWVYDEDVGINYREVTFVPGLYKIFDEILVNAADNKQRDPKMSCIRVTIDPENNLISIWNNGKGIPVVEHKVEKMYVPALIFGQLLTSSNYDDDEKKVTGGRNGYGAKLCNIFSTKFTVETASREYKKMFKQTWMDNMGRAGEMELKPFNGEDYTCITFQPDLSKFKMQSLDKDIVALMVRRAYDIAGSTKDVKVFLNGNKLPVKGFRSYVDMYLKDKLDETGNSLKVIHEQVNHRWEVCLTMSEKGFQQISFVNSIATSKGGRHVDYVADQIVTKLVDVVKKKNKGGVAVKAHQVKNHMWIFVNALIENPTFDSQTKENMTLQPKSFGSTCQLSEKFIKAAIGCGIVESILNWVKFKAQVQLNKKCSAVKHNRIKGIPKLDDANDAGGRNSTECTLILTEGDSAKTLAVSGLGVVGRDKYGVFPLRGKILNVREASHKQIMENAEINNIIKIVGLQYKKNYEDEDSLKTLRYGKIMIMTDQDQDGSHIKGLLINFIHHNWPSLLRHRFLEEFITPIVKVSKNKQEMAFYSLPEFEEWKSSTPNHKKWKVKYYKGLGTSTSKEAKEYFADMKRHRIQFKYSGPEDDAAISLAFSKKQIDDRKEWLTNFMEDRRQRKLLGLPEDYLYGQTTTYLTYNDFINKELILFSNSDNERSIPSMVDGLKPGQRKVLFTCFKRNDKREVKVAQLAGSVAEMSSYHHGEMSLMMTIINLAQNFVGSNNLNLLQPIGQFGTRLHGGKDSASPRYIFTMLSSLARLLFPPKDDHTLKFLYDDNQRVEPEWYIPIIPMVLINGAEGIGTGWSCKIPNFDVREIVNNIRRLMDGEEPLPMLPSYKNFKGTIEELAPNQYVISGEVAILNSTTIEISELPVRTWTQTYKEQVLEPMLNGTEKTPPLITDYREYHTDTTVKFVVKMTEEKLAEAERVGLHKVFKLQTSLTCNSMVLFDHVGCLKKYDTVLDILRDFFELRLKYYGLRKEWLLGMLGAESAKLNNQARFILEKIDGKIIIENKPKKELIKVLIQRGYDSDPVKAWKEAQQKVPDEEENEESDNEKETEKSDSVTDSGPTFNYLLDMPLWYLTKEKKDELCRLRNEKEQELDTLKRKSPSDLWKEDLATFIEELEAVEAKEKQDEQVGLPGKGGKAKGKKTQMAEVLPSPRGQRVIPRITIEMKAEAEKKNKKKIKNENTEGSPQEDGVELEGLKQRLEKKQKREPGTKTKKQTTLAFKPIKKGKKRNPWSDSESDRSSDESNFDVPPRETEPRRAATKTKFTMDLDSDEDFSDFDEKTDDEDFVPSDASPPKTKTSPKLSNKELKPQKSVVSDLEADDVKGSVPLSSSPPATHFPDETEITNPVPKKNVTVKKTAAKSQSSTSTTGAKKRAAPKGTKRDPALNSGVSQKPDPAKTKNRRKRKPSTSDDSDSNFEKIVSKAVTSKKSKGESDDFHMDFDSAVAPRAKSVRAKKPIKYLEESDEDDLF

Take `CC[C@H]1OC(=O)[C@H](C)[C@@H](O[C@H]2C[C@@](C)(OC)[C@@H](O)[C@H](C)O2)[C@H](C)[C@@H](O[C@@H]2O[C@H](C)C[C@H](N(C)C)[C@H]2O)[C@](C)(O)C[C@@H](C)CN(C)[C@H](C)[C@@H](O)[C@]1(C)O` [AZ, azithromycin]: the IC50 at 24 h in series [1] came to 32 ± 0.18 µM; in series [2] it was 2.08 ± 0.05 µM. The IC50 at TOP-2 enzyme came out at 36.1 ± 2.11 µM.

As to `CC[C@H]1OC(=O)[C@H](C)[C@@H](O[C@H]2C[C@@](C)(OC)[C@@H](O)[C@H](C)O2)[C@H](C)[C@@H](O[C@@H]2O[C@H](C)C[C@H](N(C)C)[C@H]2O)[C@](C)(OC)C[C@@H](C)C(=O)[C@H](C)[C@@H](O)[C@]1(C)O` [CL, clarithromycin], the IC50 at 24 h in the series “in vitro” amounted to 1.39 ± 0.15 µM; in series [1] it was 14.8 ± 0.15 µM; in series [2], 2.74 ± 0.42 µM. Further, on TOP-2 enzyme, the IC50 came out at 25.6 ± 1.08 µM.

With `COc1cccc2c1C(=O)c1c(O)c3c(c(O)c1C2=O)C[C@@](O)(C(=O)CO)C[C@@H]3O[C@H]1C[C@H](N)[C@H](O)[C@H](C)O1` [DOX, doxorubicin], the IC50 at 24 h in “in vitro” worked out at 0.49 ± 0.1 µM; in series [1], 3.6 ± 0.07 µM; in series [2], 1.6 ± 0.05 µM. Also, the IC50 on TOP-2 enzyme was found to be 6.37 ± 0.38 µM.

Regarding `CC[C@H]1OC(=O)[C@H](C)[C@@H](O[C@H]2C[C@@](C)(OC)[C@@H](O)[C@H](C)O2)[C@H](C)[C@@H](O[C@@H]2O[C@H](C)C[C@H](N(C)C)[C@H]2O)[C@](C)(O)C[C@@H](C)C(=O)[C@H](C)[C@@H](O)[C@]1(C)O` [ER, erythromycin], at TOP-2 enzyme, the IC50 was found to be 11.6 ± 0.7 µM.

As to `CC[C@H]1OC(=O)[C@H](C)[C@@H](O[C@H]2C[C@@](C)(OC)[C@@H](O)[C@H](C)O2)[C@H](C)[C@@H](O[C@@H]2O[C@H](C)C[C@H](N(C)C)[C@H]2O)[C@](C)(O)C[C@@H](C)/C(=N\OCOCCOC)[C@H](C)[C@@H](O)[C@]1(C)O` [RO, roxithromycin], the results for the IC50 at 24 h (in “in vitro”; in series [1]; in series [2]) were 7.9 ± 0.79 µM, 32 ± 0.18 µM and 0.097 ± 0.024 µM, respectively. Moreover, on TOP-2 enzyme, the IC50 turned out to be 13.1 ± 0.77 µM.

Consider `COC1C(O)CC(=O)OC(C)CC=CC=CC(OC2CCC(N(C)C)C(C)O2)C(C)CC(CC=O)C1OC1OC(C)C(OC2CC(C)(O)C(O)C(C)O2)C(N(C)C)C1O` (centres unmarked) [SP, spiramycin], for which the results for the IC50 at 24 h (in the series “in vitro”; in series [1]; in series [2]) were 0.67 ± 0.43 µM, 20.9 ± 1.33 µM and 12.2 ± 3.27 µM, respectively. For the same compound, the IC50 on TOP-2 enzyme was determined as 21.2 ± 1.19 µM.
